We go through two molecules from publication PMC10167746, “Crystal structure of MbnF: an NADPH-dependent flavin monooxygenase from Methylocystis strain SB2” (Acta Crystallographica. Section F, Structural Biology …, 2023).

The target in assay [1] is T1, MbnF (MbnF-His) (Methylocystis sp. SB2, UniProt A0ACD6BAX2).
T1 construct: gene CTY30_04200; full-length, C-terminal His6 tag kept (pET-41a, E. coli BL21(DE3)); monomer in solution (SEC), dimer in crystal
Kind of assay: X-ray crystal structure, […] A. It counts as binding. Conditions: co-purified from E. coli, no FAD added; noncovalent; 'in' conformation, all three monomers of the asymmetric unit; crystals pH 6.5, 200 mM NaBr.

The target in assay [2] is T2, MbnF from Methylocystis sp. strain SB2, C-terminally His6-tagged (Methylocystis sp. strain SB2).
T2 construct: MbnF, Methylocystis sp. strain SB2; Computed mass 59.17 kDa as printed; also called MbnF-His; FAD-dependent oxidoreductase; source: E. coli BL21(DE3), pET-41, purified (HisTrap, Mono Q); not shown: His6, C-terminal, kept
T2 chain: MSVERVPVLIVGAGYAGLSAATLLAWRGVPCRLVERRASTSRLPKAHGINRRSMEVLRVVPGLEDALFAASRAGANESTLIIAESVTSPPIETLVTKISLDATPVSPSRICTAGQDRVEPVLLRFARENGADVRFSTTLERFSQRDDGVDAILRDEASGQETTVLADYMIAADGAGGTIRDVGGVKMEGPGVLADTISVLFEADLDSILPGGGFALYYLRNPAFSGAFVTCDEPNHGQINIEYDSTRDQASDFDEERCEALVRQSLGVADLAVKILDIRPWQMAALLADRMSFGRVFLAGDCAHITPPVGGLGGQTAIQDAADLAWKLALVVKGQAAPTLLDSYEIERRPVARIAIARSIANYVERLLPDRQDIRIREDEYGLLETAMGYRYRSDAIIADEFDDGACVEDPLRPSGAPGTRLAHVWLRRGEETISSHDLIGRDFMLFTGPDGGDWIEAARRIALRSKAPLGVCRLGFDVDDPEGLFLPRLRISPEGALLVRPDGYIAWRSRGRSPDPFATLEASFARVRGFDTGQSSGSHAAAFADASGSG
In words: native MS; ESI-MS after a SEC column (ACQUITY UPLC Protein BEH SEC) under neutral pH, isocratic 50 mM ammonium acetate pH 6.6; mixture of 1 mg/ml MbnA, 500 µM MbnF, 250 mM NaCl, 50 mM HEPES pH 7.4. The following applies: both partners purified. On the technique in general: SEC sorts molecules by how far they enter the pores of the column.

For `Cc1cc2nc3c(=O)[nH]c(=O)nc-3n(C[C@H](O)[C@H](O)[C@H](O)COP(=O)(O)OP(=O)(O)OC[C@H]3O[C@@H](n4cnc5c(N)ncnc54)[C@H](O)[C@@H]3O)c2cc1C` [FAD], the “X-ray crystal structure, 2.61 A” value in assay [1] was “All three monomers of the asymmetric unit bound FAD in the same general conformation”.

B1: MbnA peptide (methanobactin MB-SB2 precursor peptide) (peptide)
peptide: IRIAKRITLNVIGRASARCASTCAATNG
notes: MbnA, precursor peptide of methanobactin MB-SB2, Methylocystis sp. strain SB2; the natural precursor may have further residues at its N-terminus; also called MB-SB2 peptide precursor; source: synthetic peptide, bought: AnaSpec (~90% pure)
Consider B1, for which, in assay [2], the binding result was “binds”.
